Data set [1] relates to low density lipoprotein (LDL). Put plainly: Copper-promoted oxidation of LDL (conjugated dienes). It counts as biochemical, human. The conditions noted are these: 5 μM compound; 100 μg/ml LDL, 5 μM copper sulfate. An excerpt:
(§1) The following experiment is based on the use of low density lipoprotein (LDL) as an oxidizable substrate. LDL is one of the plasma lipoproteins whose oxidation is thought to contribute to the pathogenesis of atherosclerosis. The copper-promoted, the hydrogen peroxide-/horseradish peroxidase-promoted and the myeloperoxidase-promoted oxidation of LDL are models for the free radical-induced oxidation of LDL that occurs in vivo.
(§2) LDL was isolated from heparinized plasma of normal human donors by ultracentrifugation. Most of the experiments described in this study were performed immediately after isolation. Examples and further details of the experimental procedures may be found in N. Santanam et al J. Clin Invest. 95(6):2594 (1995) and FEBS Letters, 414:549-551 (1997).
(§3) The formation of conjugated dienes was measured in a spectrophotometer (model DB-3500; SLM-AMINCO, Urbana, Ill.) equipped with a 12 position sample changer. Samples and references were measured continuously for periods of up to several hours. Typically, 100 μg/ml of LDL was incubated in PBS with 1 U horseradish peroxidase (type X, 260 U/mg) in the presence of 50 μM H2O2. For copper-mediated oxidation, 100 μg/ml LDL was incubated with 5 μM copper sulfate solution.

Data set [2] has as its system low density lipoprotein (LDL). Put plainly: Hydrogen peroxide/horseradish peroxidase-promoted oxidation of LDL (conjugated dienes). It counts as biochemical, human. As to conditions: 5 μM compound; 100 μg/ml LDL, 1 U horseradish peroxidase, 50 μM H2O2.
Text: as §1, §2, §3

Data set [3] is described as follows: In vivo hydrolysis of propofol hemisuccinate after gavage. The conditions noted are these: rats, two day observation period following the dosing.
Method: (§4) Propofol hemisuccinate sodium salt in aqueous solution was administered to adult male Sprague-Dawley rats by gavage. Blood was collected at 2, 4, 8 and 24 hours after dosing, and analyzed by HPLC as described in example 3.
For data set [4] the following is noted: male, Sprague-Dawley, rat, in vivo.
Method: as §4

Counter-ions that a name gives are not always drawn.

For “mono(propofol) phosphate disodium salt [(mono)propofol phosphate]”, the “Effect on copper-promoted oxidation of LDL” value in data set [1] is “not significantly affected”. For the same compound, in data set [2], the “Effect on oxidation of LDL in the presence of horseradish peroxidase/hydrogen peroxide” value is “not significantly affected”. In the case of `CC(C)c1cccc(C(C)C)c1OC(=O)CCC(=O)O` (as salt: succinate) [propofol hemisuccinate, 2,6-diisopropylphenyl hydrogen succinate], the melting point was 101 to 102 °C.

Consider `CC(C)c1cccc(C(C)C)c1OC(=O)CCC(=O)O` [propofol hemisuccinate, 2,6-diisopropylphenyl hydrogen succinate], for which, in data set [3], the “Condition of the animals after dosing” value is “All the animals remained healthy and active”. For the same compound, the “Time of peak blood levels of propofol after dosing” value in data set [4] is 2 to 4 h.

The record behind these values is patent US6362234B1, “Water-soluble prodrugs of propofol for treatment of migrane” (Vyrex Corporation, priority 2000, dated 2002).
